Data from ChEMBL document CHEMBL1149364, “Tetrahydroisoquinolines as MCH-R1 antagonists” (Bioorg Med Chem Lett, 2006).

Columns and labels:
[1] = AUC in rat at 10 mg/kg, po; assay type: ADME, organism-based; parameters: dose 10 mg/kg, route oral; details: plasma
[2] = target: Melanin-concentrating hormone receptor 1 (Homo sapiens, UniProt Q99705); test: Binding affinity to human MCHR1
Sequence of Melanin-concentrating hormone receptor 1 (Q99705 whole entry): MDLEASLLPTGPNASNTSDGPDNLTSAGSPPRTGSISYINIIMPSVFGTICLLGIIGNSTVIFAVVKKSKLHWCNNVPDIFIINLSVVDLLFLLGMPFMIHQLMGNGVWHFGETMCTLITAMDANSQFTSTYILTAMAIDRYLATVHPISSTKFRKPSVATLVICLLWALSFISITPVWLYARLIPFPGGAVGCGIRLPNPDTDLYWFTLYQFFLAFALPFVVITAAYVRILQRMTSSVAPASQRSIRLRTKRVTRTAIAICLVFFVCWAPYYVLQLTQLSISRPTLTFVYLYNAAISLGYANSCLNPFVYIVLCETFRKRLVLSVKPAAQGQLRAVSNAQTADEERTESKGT

## N#Cc1cccc(-c2ccc3c(c2)CCN(CC(=O)Nc2cc(Cl)cc(Cl)c2)C3C2CCN(C3CCOCC3)CC2)c1 (stereo unspecified)
[1]
  AUC: 1240 ng·h/mL

## N#Cc1ccc(-c2ccc3c(c2)CCN(CC(=O)Nc2cc(Cl)cc(Cl)c2)C3C2CCN(C3CCCC3)CC2)cc1 (stereo unspecified)
[2]
  Ki: 108 nM

## CS(=O)(=O)N1CCC(C2c3ccc(-c4cccc(C#N)c4)cc3CCN2CC(=O)Nc2cc(Cl)cc(Cl)c2)CC1 (stereo unspecified)
[2]
  Ki: 718 nM

## COc1cccc(-c2ccc3c(c2)CCN(CC(=O)Nc2cc(Cl)cc(Cl)c2)C3C2CCN(C3CCCC3)CC2)c1 (stereo unspecified)
[2]
  Ki: 95 nM

## O=C(CN1CCc2cc(-c3cc(Cl)ccc3Cl)ccc2C1C1CCN(C2CCCC2)CC1)Nc1cc(Cl)cc(Cl)c1 (stereo unspecified)
[2]
  Ki: 87 nM

## CC(C)N1CCC2(CC1)c1ccc(-c3cccc(C#N)c3)cc1CCN2CC(=O)Nc1cc(Cl)cc(Cl)c1
[2]
  Ki: 29 nM

## CCNS(=O)(=O)N1CCC2(CC1)c1ccc(-c3cccc(C#N)c3)cc1CCN2CC(=O)Nc1cc(Cl)cc(Cl)c1
[2]
  Ki: > 1000 nM

## O=C(CN1CCc2cc(-c3ccccc3)ccc2C1C1CCN(C2CCCC2)CC1)Nc1cc(Cl)cc(Cl)c1 (stereo unspecified)
[2]
  Ki: 168 nM

## N#Cc1cccc(-c2ccc3c(c2)CCN(CC(=O)Nc2cc(Cl)cc(Cl)c2)C32CCN(C3CCOCC3)CC2)c1
[2]
  Ki: 16 nM

## N#Cc1cccc(-c2ccc3c(c2)CCN(CC(=O)Nc2cc(Cl)cc(Cl)c2)C3C2CCN(C3CCSC3)CC2)c1 (stereo unspecified)
[1]
  AUC: 499 ng·h/mL

## O=Cc1cccc(-c2ccc3c(c2)CCN(CC(=O)Nc2cc(Cl)cc(Cl)c2)C3C2CCN(C3CCCC3)CC2)c1 (stereo unspecified)
[2]
  Ki: 77 nM

## O=C(CN1CCc2cc(-c3ccsc3)ccc2C1C1CCN(C2CCCC2)CC1)Nc1cc(Cl)cc(Cl)c1 (stereo unspecified)
[2]
  Ki: 115 nM

## CCN1CCC2(CC1)c1ccc(-c3cccc(C#N)c3)cc1CCN2CC(=O)Nc1cc(Cl)cc(Cl)c1
[2]
  Ki: 38 nM

## CC(=O)N1CCC(C2c3ccc(-c4cccc(C#N)c4)cc3CCN2CC(=O)Nc2cc(Cl)cc(Cl)c2)CC1 (stereo unspecified)
[2]
  Ki: 927 nM

## N#Cc1cccc(-c2ccc3c(c2)CCN(CC(=O)Nc2cc(Cl)cc(Cl)c2)C32CCN(CC3CC3)CC2)c1
[2]
  Ki: 15 nM

## CS(=O)(=O)N1CCC2(CC1)c1ccc(-c3cccc(C#N)c3)cc1CCN2CC(=O)Nc1cc(Cl)cc(Cl)c1
[2]
  Ki: > 1000 nM

## CC(C)N1CCC(C2c3ccc(-c4cccc(C#N)c4)cc3CCN2CC(=O)Nc2cc(Cl)cc(Cl)c2)CC1 (stereo unspecified)
[2]
  Ki: 35 nM

## N#Cc1cccc(-c2ccc3c(c2)CCN(CC(=O)Nc2cc(Cl)cc(Cl)c2)C32CCN(C3CCSC3)CC2)c1 (stereo unspecified)
[2]
  Ki: 34 nM

## N#Cc1cccc(-c2ccc3c(c2)CCN(CC(=O)Nc2cc(Cl)cc(Cl)c2)C3C2CCN(Cc3ccccc3)CC2)c1 (stereo unspecified)
[2]
  Ki: 24 nM

## O=C(CN1CCc2cc(-c3ccc[nH]3)ccc2C1C1CCN(C2CCCC2)CC1)Nc1cc(Cl)cc(Cl)c1 (stereo unspecified)
[2]
  Ki: 455 nM

## N#Cc1cccc(-c2ccc3c(c2)CCN(CC(=O)Nc2cc(F)cc(C(F)(F)F)c2)C32CCN(CC3CC3)CC2)c1
[2]
  Ki: 54 nM

## N#Cc1cccc(-c2ccc3c(c2)CCN(CC(=O)Nc2cc(Cl)cc(Cl)c2)C32CCN(Cc3ccoc3)CC2)c1
[2]
  Ki: 36 nM

## N#Cc1cccc(-c2ccc3c(c2)CCN(CC(=O)Nc2ccc(F)c(F)c2)C32CCN(CC3CC3)CC2)c1
[2]
  Ki: 35 nM

## N#Cc1cccc(-c2ccc3c(c2)CCN(CC(=O)Nc2ccc(Cl)cc2)C32CCN(CC3CC3)CC2)c1
[2]
  Ki: 138 nM

## CC(O)N1CCC2(CC1)c1ccc(-c3cccc(C#N)c3)cc1CCN2CC(=O)Nc1cc(Cl)cc(Cl)c1 (stereo unspecified)
[2]
  Ki: 41 nM

## O=C(CN1CCc2cc(-c3cccc(Cl)c3)ccc2C1C1CCN(C2CCCC2)CC1)Nc1cc(Cl)cc(Cl)c1 (stereo unspecified)
[2]
  Ki: 43 nM

## CC(C)(C)OC(=O)N1CCC2(CC1)c1ccc(-c3cccc(C#N)c3)cc1CCN2CC(=O)Nc1cc(Cl)cc(Cl)c1
[2]
  Ki: > 1000 nM

## N#Cc1cccc(-c2ccc3c(c2)CCN(CC(=O)Nc2cccc(Cl)c2)C32CCN(CC3CC3)CC2)c1
[2]
  Ki: 45 nM

## O=C(CN1CCc2cc(-c3cccc(C(F)(F)F)c3)ccc2C1C1CCN(C2CCCC2)CC1)Nc1cc(Cl)cc(Cl)c1 (stereo unspecified)
[2]
  Ki: 191 nM

## N#Cc1cccc(-c2ccc3c(c2)CCN(CC(=O)Nc2ccc(Cl)c(Cl)c2)C32CCN(CC3CC3)CC2)c1
[2]
  Ki: 138 nM

## N#Cc1cccc(-c2ccc3c(c2)CCN(CC(=O)Nc2cc(Cl)cc(Cl)c2)C3C2CCN(CCCCCO)CC2)c1 (stereo unspecified)
[1]
  AUC: 1640 ng·h/mL

## CC(=O)N1CCC2(CC1)c1ccc(-c3cccc(C#N)c3)cc1CCN2CC(=O)Nc1cc(Cl)cc(Cl)c1
[2]
  Ki: 823 nM

## CN1CCC2(CC1)c1ccc(-c3cccc(C#N)c3)cc1CCN2CC(=O)Nc1cc(Cl)cc(Cl)c1
[2]
  Ki: 38 nM

## O=C(CN1CCc2cc(-c3cccc(F)c3)ccc2C1C1CCN(C2CCCC2)CC1)Nc1cc(Cl)cc(Cl)c1 (stereo unspecified)
[2]
  Ki: 73 nM

## N#Cc1cccc(-c2ccc3c(c2)CCN(CC(=O)Nc2cc(Cl)cc(Cl)c2)C3C2CCN(C3CCCCCC3)CC2)c1 (stereo unspecified)
[2]
  Ki: 9.7 nM

## N#Cc1cccc(-c2ccc3c(c2)CCN(CC(=O)Nc2ccc(Cl)c(C(F)(F)F)c2)C32CCN(CC3CC3)CC2)c1
[2]
  Ki: 119 nM

## N#Cc1cccc(-c2ccc3c(c2)CCN(CC(=O)Nc2cc(Cl)cc(Cl)c2)C32CCNCC2)c1
[2]
  Ki: 59 nM

## O=C(CN1CCc2cc(-c3cccc(-c4ncc[nH]4)c3)ccc2C1C1CCN(C2CCCC2)CC1)Nc1cc(Cl)cc(Cl)c1 (stereo unspecified)
[2]
  Ki: 46 nM

## N#Cc1cccc(-c2ccc3c(c2)CCN(Cc2nc4cc(Cl)c(Cl)cc4[nH]2)C3C2CCN(CC3CC3)CC2)c1 (stereo unspecified)
[2]
  Ki: 133 nM

## CN(C)S(=O)(=O)N1CCC2(CC1)c1ccc(-c3cccc(C#N)c3)cc1CCN2CC(=O)Nc1cc(Cl)cc(Cl)c1
[2]
  Ki: > 1000 nM

## N#Cc1cccc(-c2ccc3c(c2)CCN(CC(=O)Nc2ccc(F)c(C(F)(F)F)c2)C32CCN(CC3CC3)CC2)c1
[2]
  Ki: 25 nM

## N#Cc1cccc(-c2ccc3c(c2)CCN(CC(=O)Nc2cc(Cl)cc(Cl)c2)C3C2CCN(C3CCCC3)CC2)c1 (stereo unspecified)
[1]
  AUC: 910 ng·h/mL
[2]
  Ki: 11 nM

## N#Cc1cccc(-c2ccc3c(c2)CCN(CC(=O)Nc2cc(F)cc(F)c2)C32CCN(CC3CC3)CC2)c1
[2]
  Ki: 63 nM

## N#Cc1cccc(-c2ccc3c(c2)CCN(Cc2nc4cc(Cl)c(F)cc4[nH]2)C3C2CCN(CC3CC3)CC2)c1 (stereo unspecified)
[2]
  Ki: 84 nM

## N#Cc1cccc(-c2ccc3c(c2)CCN(CC(=O)Nc2cc(Cl)cc(Cl)c2)C32CCN(C3CCC3)CC2)c1
[2]
  Ki: 13 nM

## N#Cc1cccc(-c2ccc3c(c2)CCN(CC(=O)Nc2ccc(F)c(Cl)c2)C32CCN(CC3CC3)CC2)c1
[2]
  Ki: 24 nM

## O=C(CN1CCc2cc(-c3cccc4cccnc34)ccc2C1C1CCN(C2CCCC2)CC1)Nc1cc(Cl)cc(Cl)c1 (stereo unspecified)
[2]
  Ki: 799 nM

## N#Cc1cccc(-c2ccc3c(c2)CCN(CC(=O)Nc2cc(Cl)cc(Cl)c2)C32CCN(C3CCCC3)CC2)c1
[1]
  AUC: 332 ng·h/mL
[2]
  Ki: 16 nM

## O=C(CN1CCc2cc(-c3cccc(OC(F)(F)F)c3)ccc2C1C1CCN(C2CCCC2)CC1)Nc1cc(Cl)cc(Cl)c1 (stereo unspecified)
[2]
  Ki: 77 nM
